Assay results reported in patent US5563037A, “Homogeneous method for assay of double-stranded nucleic acids using fluorescent dyes and kit useful therein” (Johnson & Johnson Clinical Diagnostics, Inc., priority 1995, dated 1996).

Experiments:
Type in all cases: biochemical
HIV-I DNA [1] = experiment: Example 1: PCR amplification of HIV-I DNA with YO-PRO-1 dye, fluorescence vs. PCR cycles
Source text: The primers used in Examples 1 and 2 had the following sequences which are complementary to the gag region of HIV-I DNA:
HIV-I target DNA was obtained from HUT78/HIV AAV cells obtained from Bernie Poiesz of Syracuse University. Each cell contained about 1 HIV-I copy.
The final PCR reaction mixture contained the primers SEQ ID NO:1 and SEQ ID NO:2 (0.4 μmolar of each), magnesium chloride (10 mmolar), each of dATP, dCTP, dGTP and dTTP (1.5 mmolar of each), tris(hydroxymethyl)aminomethane buffer (10 mmolar, pH 8), ethylenediaminetetraacetic acid (0.1 mmolar), potassium chloride (50 mmolar), DNA polymerase (160 units/ml) and Kodak Ultrapure Human DNA (0.22 μg/μl), glycerol (7.5%). […]
All reagents, except the DNA polymerase, were mixed with the buffer solution noted above. […] The fluorescence of the contents of that tube was then measured following dilution (100 μl of reaction mixture with 3900 μl of dye solution at a concentration of […], giving a final fluid volume of 4 ml in the fluorimeter cuvette) on a commercially available Perkin-Elmer LS-5B spectrofluorimeter (excitation at 491 nm, emission at 509 nm).
The results of these measurements are shown in the FIGURE which is a plot of fluorescence intensity vs. the number of PCR cycles. […]

HIV-I DNA [2] = experiment: Example 3: fluorescence after amplification with dye; usefulness / PCR inhibition
Procedure: The primers used in Example 3 had the following sequences which are complementary to the gag region of HIV-I DNA: Amplification experiments like those of Example 2 were also carried out to evaluate the usefulness of several other conventional fluorescent dye stains. In these assays, primers identified above as SEQ ID NO:3 and SEQ ID NO:4 were used, as well as the probe identified as SEQ ID NO:6. […] Fluorescence was determined as described in Example 2 except that all amplified samples were mixed with a solution of YOYO-1 (0.1 μmolar) to provide a common minimum threshold of signal.

HIV-I DNA [3] = experiment: Example 2: ethidium bromide stained electrophoretic gels of amplification products; details: dye added prior to amplification
Procedure: The method of this invention was compared to an amplification and detection method outside the scope of this invention, which was carried out using YOYO-1 (1 μmolar final concentration), a tetravalent fluorescent dye, in the buffered solution described above. This dye has the following structure: [drawing 4] The PCR reaction mixture of Example 1 (except the DNA polymerase) was made to a volume of 5472 μl. The resulting mixture was aliquoted into tubes A, B and C (1824 μl each) representing Samples A, B and C, respectively. The sample in Tube A was diluted with buffer (220 μl) and subjected to amplification without any fluorescence dye present. The dye was added at the end of amplification for quantitative detection of the resulting products. In addition to the PCR reagents, the sample in Tube B contained YOYO-1 fluorescent dye (0.1 μmolar) which had been added prior to amplification (220 μl of a 10 μmolar solution). The sample in Tube C also contained YO-[…] fluorescent dye (0.1 μmolar) which had been added prior to amplification (220 μl of a 10 μmolar solution). The DNA polymerase (88 μl) and target HIV-I DNA target nucleic acid (220 μl) were then added to each tube, and the contents of the each of the three tubes were used to fill the PCR reagent compartment of eight pouches. Amplification was carried out using the same procedures as in Example 1. […] follows: The results of amplification were detected in three ways: (1) color dye scores visually evaluated as 0 (no signal) to 10 (highest signal density), (2) ethidium bromide stained electrophoretic gels, and (3) fluorescence measured on a commercially available Perkin Elmer fluorimeter. Electrophoresis was carried out using commercially available NuSieve 1.5%/Seakem Agarose 1% gels (modified to 2.5% agarose) and ethidium bromide stain. The samples were applied to the gels in conventional TBE buffer (4 μl/100 μl). Three replicate assays of each sample (A, B and C) were carried out using each detection means. The average result for each detection means was as follows: […]

For C[n+]1c(C=C2C=CN(CCC[N+](C)(C)C)c3ccccc32)oc2ccccc21 [Compound E], the “fluorescence after PCR” value (HIV-I DNA [1]; after 45 PCR cycles, excitation 491 nm, emission 509 nm) was “about 20 fluorescent units”, the “effect of dye on PCR” value (HIV-I DNA [1]; dye present throughout entire amplification, 1 μmolar) was “did not adversely affect PCR” and the “Fluorescent Signal” value (HIV-I DNA [2]; amplified samples mixed with YOYO-1 (0.1 μmolar)) was 16. The “usefulness of dye / inhibition of PCR” value (HIV-I DNA [2]; dye in amplification) was “useful”, the “effect of dye on amplification (gel)” value (HIV-I DNA [3]) was “allowed amplification to proceed” and the “Positive/negative Gel Bands” value (HIV-I DNA [3]; 40 cycles) was 5 Positives out of 5 bands.
